Patent publication US20220389008A1, “4-QUINOLINONE ANTIBACTERIAL COMPOUNDS” (Janssen Sciences Ireland Unlimited Company, priority 2019, published 2022)
Where two headings read alike, the source gives them in different places.

Columns and labels:
[1] = test system: Mycobacterium tuberculosis strain H37Rv ΔctaE-ΔqcrCAB; experiment: microbe, parasite or virus in culture; type: cell-based; conditions: 240 h
[2] = test system: Mitochondrial toxicity (Glu/Gal); experiment: Mitochondrial toxicity (Glu/Gal) assay; type: cell-based; design: key to Score: “negative” means that in the test, it was found to have low mitotoxicity (and hence no mitotoxicity alerts); “positive” means that there were some mitotoxicity alerts; “inconclusive” means that no accurate conclusion could be drawn; conditions: for Score: mitotoxicity score; for Δ IC50,glu/IC50,gal: ratio glu/gal
Text: The compounds of the invention/examples may have advantages associated with in vitro potency, kill kinetics (i.e. bactericidal effect) in vitro, PK properties, food effect, safety/toxicity (including liver toxicity, coagulation, 5-LO oxygenase), metabolic stability, Ames II negativity, MNT negativity, aqueous based solubility (and ability to formulate) and/or cardiovascular effect e.g. on animals (e.g. anesthetized guinea pig). The data below that was generated/calculated may be obtained using standard methods/assays, for instance that are available in the literature or which may be performed by a supplier (e.g. Microsomal Stability Assay—Cyprotex, Mitochondrial toxicity (Glu/Gal) assay—Cyprotex, as well as literature CYP cocktail inhibition assays).

[3] = test system: Mycobacterium tuberculosis (strain H37Ra), cyt bd; conditions: Mtb H37Ra; for (i) % OCR after cyt bd inhibitor: test compound 10 μM added after Compound X 0.9 μM; for (ii) % OCR after cccp: test compound 10 μM after Compound X 0.9 μM, then CCCP 1 μM
[4] = galactose medium, read-out: IC50, gal
[5] = glucose medium, read-out: IC50, glu

| SMILES | IC50 [1] | IC50 [2, 4] | IC50 [2, 5] | Score [2] | Δ IC50,glu/IC50,gal [2] | (i) % OCR after cyt bd inhibitor [3] | (ii) % OCR after cccp [3] |
| --- | --- | --- | --- | --- | --- | --- | --- |
| Cc1c(-c2nc3ccc(OC(F)(F)F)cn3n2)[nH]c2ccccc2c1=O [Compound 30] | 2.92 µM | 100 µM | 100 µM | negative | [x]0 | 93.8% | 120.2% |
| CN(C)C(=O)c1c(-c2nc3ccc(-c4ccc(OC(F)(F)F)cc4)cn3n2)[nH]c2ccccc2c1=O [Compound 31] | > 50 µM | 76 µM | 200 µM | inconclusive | [x]2.63 | 68.97% | 120.39% |
| Cc1c(-c2nc3cc(Br)ccn3n2)[nH]c2ccccc2c1=O [Compound 39] | > 100 µM | 100 µM | 100 µM | negative | [x]0 | 110.6% | 133.8% |
| COc1cc2nc(-c3[nH]c4ccccc4c(=O)c3C)nn2cc1F [Compound 40] | > 100 µM | 200 µM | 200 µM | negative | [x]0 | 95.33% | 134.33% |
| O=c1c(Br)c(-c2nc3ccc(-c4ccc(OC(F)(F)F)cc4)cn3n2)[nH]c2ccccc12 [Compound 41] | 33.9 µM | 54.7 µM | 53.9 µM | negative | [x]0.99 | 84.09% | 137.15% |
| Cc1c(-c2cn3ccc(-c4ccc(OC(F)(F)F)cc4)cc3n2)[nH]c2ccccc2c1=O [Compound 42] | 30.7 µM | 200 µM | 200 µM | negative | – | 80.1% | 137.9% |
| COc1ccc2[nH]c(-c3nc4ccc(-c5ccc(OC(F)(F)F)cc5)cn4n3)c(C)c(=O)c2c1 [Compound 43] | > 100 µM | 10.6 µM | 26.3 µM | inconclusive | [x]2.48 | 109.2% | 138% |
| Cc1c(-c2nc3ccc(-c4cnc(C(F)(F)F)s4)cn3n2)[nH]c2ccccc2c1=O [Compound 45] | 5.96 µM | 20 µM | 20 µM | negative | [x]0 | 94.41% | 138.84% |
| Cc1c(-c2nc3cc(C(F)(F)F)c(Br)cn3n2)[nH]c2ccccc2c1=O [Compound 46] | > 50 µM | 100 µM | 100 µM | negative | [x]0 | 91.4% | 140.4% |
| Cc1c(-c2nc3ccc(Br)cn3n2)[nH]c2c(F)cc(F)cc2c1=O [Compound 57] | > 50 µM | 100 µM | 100 µM | negative | [x]0 | 102% | 149.2% |
| Cc1c(-c2nc3ccc(-c4c[nH]nn4)cn3n2)[nH]c2ccccc2c1=O [Compound 60] | > 50 µM | 100 µM | 100 µM | negative | [x]0 | 114.505% | 155.065% |
| O=c1cc(-c2nc3ccc(-c4ccc(OC(F)(F)F)cc4)cn3n2)[nH]c2ccccc12 [Compound 65] | > 10 µM | 20 µM | 20 µM | negative | [x]0 | 99.86% | 158.97% |
| Cc1c(Cc2nc3ccc(-c4ccc(OC(F)(F)F)cc4)cn3n2)[nH]c2ccccc2c1=O [Compound 67] | 10.3 µM | 0.39 µM | 30 µM | positive | [x]76.87 | 99.28% | 161.97% |
| COc1ccc2[nH]c(-c3nc4ccc(Br)cn4n3)c(C)c(=O)c2c1 [Compound 68] | > 100 µM | 100 µM | 100 µM | negative | [x]0 | 129.7% | 164.4% |
